From patent US4772619A, “[(1H-benzimidazol-2-ylsulfinyl)methyl]-2-pyridinamines” (G. D. Searle & Co., priority 1986, dated 1988)

Experiments:
[1] = tested on: gastric acid secretion; experiment: Inhibition of Gastric Acid Secretion in Gastric Fistula Beagle Dogs; format: in vivo; settings: 3 mg/kg dose, i.v.; histamine-stimulated, four-hour period
From the text: Inhibition of Gastric Acid Secretion in Gastric Fistula Beagle Dogs
Adult female beagle dogs weighing 6 to 11 kilograms obtained from Laboratory Research Enterprises (Kalamazoo, Mich.) or from Hazelton Research Animals (Cumberland, Va.) were surgically implanted with a simple Thomas-type gastric cannula. After recovery from surgery, the dogs were trained to stand quietly, fully conscious, in Pavlov-type dog restraining slings and were acclimated to intravenous infusion of histamine dihydrochloride. During the course of these studies, no dog was used more than once a week. All dogs were deprived of food, but not water, for 18 hours prior to each assay. […] The volume of gastric secretions, collected in plastic bottles affixed to the cannula, were measured to the nearest 0.1 ml at 30 minute intervals. […]
Intravenous dosing: Following a 30-minute basal secretion period, test compounds were administered intravenously (i.v.). […] The pH and titratable acidity were determined for samples from each collection period. […]
Data from each protocol were analyzed for three gastric sample variables: volume of gastric juice, acid concentration, and total acid output. Percent inhibition for each four-hour experimental period was determined for each parameter by comparison with 3 to 4 controls in which only food was given. Estimates of ED50 's were determined from dose response curves.

[2] = molecular target: T1, (H^+ +K^+)-ATPase (Canis lupus familiaris, UniProt P50996); experiment: Inhibition of (H^+ +K^+)-ATPase from Canine Gastric Mucosa; format: biochemical, canine (mongrel dogs); settings: canine gastric mucosa microsomes, pH 6.0, 30 min preincubation with compound at 37°
T1 construct: from tissue; host or cells: microsomes from glandular gastric mucosa (antral and cardiac regions removed) of mongrel dogs, lyophilized
T1 sequence (P50996 whole entry): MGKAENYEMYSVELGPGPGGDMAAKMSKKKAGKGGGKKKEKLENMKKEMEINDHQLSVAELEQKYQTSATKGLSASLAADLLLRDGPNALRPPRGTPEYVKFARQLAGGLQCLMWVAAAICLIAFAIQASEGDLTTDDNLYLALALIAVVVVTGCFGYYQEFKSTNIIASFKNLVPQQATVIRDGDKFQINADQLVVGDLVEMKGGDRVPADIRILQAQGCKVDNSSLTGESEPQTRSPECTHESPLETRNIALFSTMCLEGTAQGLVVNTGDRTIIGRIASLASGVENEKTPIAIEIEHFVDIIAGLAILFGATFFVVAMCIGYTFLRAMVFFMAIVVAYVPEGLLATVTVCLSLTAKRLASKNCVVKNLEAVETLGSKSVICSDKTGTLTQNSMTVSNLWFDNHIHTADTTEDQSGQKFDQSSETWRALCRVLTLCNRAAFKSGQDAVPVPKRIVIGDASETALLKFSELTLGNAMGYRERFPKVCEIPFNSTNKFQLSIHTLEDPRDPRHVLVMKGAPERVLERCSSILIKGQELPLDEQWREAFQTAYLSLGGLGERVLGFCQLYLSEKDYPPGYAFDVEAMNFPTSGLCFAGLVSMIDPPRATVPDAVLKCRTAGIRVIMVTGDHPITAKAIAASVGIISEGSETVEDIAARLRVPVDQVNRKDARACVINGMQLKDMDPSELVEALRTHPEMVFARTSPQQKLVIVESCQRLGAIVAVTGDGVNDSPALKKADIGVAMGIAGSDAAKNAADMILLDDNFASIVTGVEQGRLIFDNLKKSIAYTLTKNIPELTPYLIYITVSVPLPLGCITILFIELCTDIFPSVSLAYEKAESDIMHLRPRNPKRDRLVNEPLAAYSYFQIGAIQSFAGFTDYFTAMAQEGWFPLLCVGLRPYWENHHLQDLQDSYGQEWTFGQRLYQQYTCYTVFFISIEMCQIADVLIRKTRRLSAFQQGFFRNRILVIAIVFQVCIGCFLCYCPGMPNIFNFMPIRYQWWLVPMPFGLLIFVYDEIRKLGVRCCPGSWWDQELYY
T1 sequence (P33704 whole entry partner): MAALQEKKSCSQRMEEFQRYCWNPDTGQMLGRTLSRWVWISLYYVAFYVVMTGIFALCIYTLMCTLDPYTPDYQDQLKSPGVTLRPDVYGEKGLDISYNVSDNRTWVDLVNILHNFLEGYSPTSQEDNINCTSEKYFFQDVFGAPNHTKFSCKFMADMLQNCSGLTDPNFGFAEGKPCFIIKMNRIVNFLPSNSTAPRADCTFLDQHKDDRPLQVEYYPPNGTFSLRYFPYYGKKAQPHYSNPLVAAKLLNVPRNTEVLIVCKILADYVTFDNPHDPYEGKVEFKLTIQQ

- IC50 [2]: 100 µM
Compound: Nc1ncccc1C[S+]([O-])c1nc2ccccc2[nH]1.O (centres unmarked) [Example 3, 3-[(1H-benzimidazol-2-ylsulfinyl)methyl]-2-pyridinamine hydrate]
- Gastric-Fistula Beagle % Inhibition [1]: 41%
